Reference: US9415018B2, “Methods for improving muscle strength” (Washington University, priority 2012, dated 2016)

How the values were obtained:
[1] = humans; cited from earlier work
[2] = test system: mdx mouse diaphragm muscle; assay: Fluorescence staining of nanoparticle and rapamycin deposition in mdx diaphragm; assay type: in vivo; settings: mdx mouse treated with rapamycin-loaded nanoparticles
Source text: The nanoparticles were rhodamine-labeled, and the rapamycin was labeled with Cy-7.

In the case of `CO[C@H]1C[C@@H]2CC[C@@H](C)[C@@](O)(O2)C(=O)C(=O)N2CCCC[C@H]2C(=O)O[C@H]([C@H](C)C[C@@H]2CC[C@@H](O)[C@H](OC)C2)CC(=O)[C@H](C)/C=C(\C)[C@@H](O)[C@@H](OC)C(=O)[C@H](C)C[C@H](C)/C=C/C=C/C=C/1C` [rapamycin], the oral absorption [1] is listed as 18% and the “distribution of Cy-7 labeled rapamycin in diaphragm muscle” value [2] is listed as “both punctate and diffuse staining”.
